{"source": "paper PMC9506587", "about": "(Toxins, 2022)", "key": {"[1]": {"test_system": "recombinant protein USTB-05-C (MlrC)", "conditions": "pH 7.3"}, "[2]": {"test_system": "recombinant protein USTB-05-C (MlrC)", "assay": "in vitro", "conditions": "Sphingopyxis sp. USTB-05, isolated enzyme, pH 7.3"}}, "data": [{"smiles": "C/C=C(/C(=O)N[C@@H](C(=O)O)[C@H](C)C(=O)N[C@@H](CCCNC(=N)N)C(=O)O)N(C)C(=O)CC[C@@H](NC(=O)[C@@H](C)[C@@H](N)/C=C/C(C)=C/[C@H](C)[C@H](Cc1ccccc1)OC)C(=O)O", "note": "[linear NOD]", "values": [{"measurement": "time to complete removal (degradation) of linear NOD by purified MlrC", "setting": "[1]", "value": "≤ 6", "unit": "h"}, {"measurement": "metabolised at 4 h", "setting": "[2]", "value": "~98.7", "unit": "%"}]}]}
